The values that follow come from PubChem BioAssay AID1259408 (Genetic Toxicology Data Bank (GENE-TOX), 2018).

The source made the active and inactive calls. The rule behind the calls is not given here. Numbered stars: 1 amine (or outer) side, 2 acyl side, 3 side chain; on linkers, the order of the positions; unused ones are H or OH. Bridge positions count the residues as written; N and C are the ends. Square brackets hold non-standard residues; d marks the D form. Peptide text beside a SMILES is read from it. I, II: the chains in the order shown. Actinocin(9to1) = Cc1c2oc3c(C)ccc(C(=O)[*:1])c3nc-2c(C(=O)[*:2])c(N)c1=O; NMeV = CN[C@H](C(=O)O)C(C)C; Sar = CNCC(=O)O

For the data set, the system named is GENE-TOX genotoxicity assays, various organisms and cells. The experiment in a line: GENE-TOX mutagenicity studies. To be noted: for call: Assay Type: In vivo carcinogenicity studies, Assay Code: CCG+L.
[1] abbreviates: Species/Cell Type: Drosophila melanogaster, Assay Type: Sex-linked recessive lethal gene mutation, Assay Code: SRLT, Evaluation Type: Evaluation A (Pre-1980).
[2] abbreviates: Species/Cell Type: Salmonella typhimurium (one or more of the five standard strains: TA98, TA100, TA1535, TA1537, and TA1538), Assay Type: Histidine reverse gene mutation, Ames assay, Assay Code: SALT, Evaluation Type: Evaluation A (Pre-1980).
The mark [3] stands for this setting: Species/Cell Type: Chinese hamster ovary (CHO) cells, Assay Type: Forward gene mutation at the HPRT locus, Assay Code: CHO+, Evaluation Type: Evaluation B (Post-1980).
The mark [4] stands for this setting: Species/Cell Type: Escherichia coli polA (W3119 vs P3478), Assay Type: Rec-assay, DNA effects (bacterial DNA repair), Assay Code: RE1T, Evaluation Type: Evaluation A (Pre-1980).
[5] abbreviates: Species/Cell Type: Mammalian polychromatic erythrocytes, Assay Type: Micronucleus test, chromosome aberrations, Assay Code: MNTT, Evaluation Type: Evaluation A (Pre-1980).
Where [6] appears, read: Species/Cell Type: Nonhuman, Evaluation Type: Evaluation A (Pre-1980).
Setting [7] is: Species/Cell Type: Rodents, Sex: Male, Assay Type: Dominant lethal test, Assay Code: DLT-, Evaluation Type: Evaluation A (Pre-1980).
[8] abbreviates: Species/Cell Type: Salmonella typhimurium (one or more of the five standard strains: TA98, TA100, TA1535, TA1537, and TA1538), Assay Type: Histidine reverse gene mutation, Ames assay, Assay Code: SAL+, Evaluation Type: Evaluation A (Pre-1980).
Where [9] appears, read: Species/Cell Type: Human diploid fibroblasts, Assay Type: Unscheduled DNA synthesis (UDS) in vitro, DNA effects, Assay Code: UDH+, Evaluation Type: Evaluation A (Pre-1980).
Where [10] appears, read: Species/Cell Type: Mammalian polychromatic erythrocytes, Assay Type: Micronucleus test, chromosome aberrations, Assay Code: MNTT, Evaluation Type: Evaluation B (Post-1980).

`N`: under setting [1], the mutagenic call is on record as “no conclusion”.

On to `O=C1c2cccc(O)c2C(=O)c2c(O)cc(CO)cc21`, for which the mutagenic call (Species/Cell Type: Salmonella typhimurium (one or more of the five standard strains: TA98, TA100, TA1535, TA1537, and TA1538), Assay Type: Histidine reverse gene mutation, Ames assay, Assay Code: SAL+/-*, Activation: With metabolic activation, Evaluation Type: Evaluation A (Pre-1980)) is “inactive; positive without activation, negative with activation”.

Turning to `Cn1c[n+](C)cc1[N+](=O)[O-]`, under setting [2], the mutagenic call is “no conclusion”.

In the case of `CC(=O)C(NC(=O)C(C)C(O)C(C)NC(=O)C(NC(=O)c1nc(C(CC(N)=O)NCC(N)C(N)=O)nc(N)c1C)C(O[C@@H]1O[C@@H](CO)[C@@H](O)[C@H](O)[C@]1(C)O[C@@H]1OC(CO)[C@H](O)[C@](O)(C(N)=O)[C@H]1O)c1cnc[nH]1)C(=O)NCCC1=NC(c2nc(C(N)=O)cs2)CS1` (some centres not stated), the mutagenic call is “active; positive” (Species/Cell Type: Mammalian oocytes or early embryo, Assay Type: Chromosome aberrations in vivo, Assay Code: CYO+, Evaluation Type: Evaluation A (Pre-1980)) and “active; positive” (Species/Cell Type: Vicia faba, Assay Type: Chromosome aberrations, Assay Code: VIC+D, Dose Response: With dose response, Evaluation Type: Evaluation A (Pre-1980)).

`Cc1c2oc3c(C)ccc(C(=O)N[C@@H]4C(=O)N[C@H](C(C)C)C(=O)N5CCC[C@H]5C(=O)N(C)CC(=O)N(C)[C@@H](C(C)C)C(=O)O[C@@H]4C)c3nc-2c(C(=O)N[C@@H]2C(=O)N[C@H](C(C)C)C(=O)N3CCC[C@H]3C(=O)N(C)CC(=O)N(C)[C@@H](C(C)C)C(=O)O[C@@H]2C)c(N)c1=O` (I: T[dV]P[Sar][NMeV] / II: T[dV]P[Sar][NMeV]; ester I:1-I:C, II:1-II:C; linker I:N-II:N via Actinocin(9to1)): the mutagenic call was “active; positive” (Species/Cell Type: Allium cepa, Assay Type: Chromosome aberrations, Assay Code: ALC+, Evaluation Type: Evaluation A (Pre-1980)); “inactive; negative” (Species/Cell Type: Chinese hamster lung (V79) cells, Assay Type: Forward gene mutation at the HPRT or ouabain locus, Assay Code: V79-, Evaluation Type: Evaluation A (Pre-1980)); “active; positive” under setting [3]; “active; positive” (Species/Cell Type: Drosophila melanogaster, Assay Type: Aneuploidy, sex chromosome gain, chromosome aberrations, Assay Code: DAG+F, Evaluation Type: Evaluation A (Pre-1980)); “active; positive” (Species/Cell Type: Drosophila melanogaster, Assay Type: Aneuploidy, whole sex chromosome loss, chromosome aberrations, Assay Code: DAC+F, Evaluation Type: Evaluation A (Pre-1980)); “no conclusion” under setting [1]. Moreover, the mutagenic call is, setting by setting: under setting [4], “no conclusion”; (Species/Cell Type: Glycine max (soybean), Assay Type: Gene mutation, Assay Code: GLM+, Evaluation Type: Evaluation A (Pre-1980)) “active; positive”; (Species/Cell Type: Human cell culture, Assay Type: Chromosome aberrations in vitro, Assay Code: CYZ+D, Dose Response: With dose response, Evaluation Type: Evaluation A (Pre-1980)) “active; positive”; (Species/Cell Type: Human lymphocytes, Assay Type: Sister-chromatid exchange (SCE) in vivo, Assay Code: SCY+, Evaluation Type: Evaluation B (Post-1980)) “active; positive”; under setting [5], “no conclusion”; (Species/Cell Type: Mouse (C3H/10T1/2) cells, Assay Type: Cell transformation, Assay Code: CTH+, Evaluation Type: Evaluation A (Pre-1980)) “active; positive”. Also, the mutagenic call is “active; positive” (Species/Cell Type: Mouse, Sex: Male, Assay Type: Sperm morphology, Assay Code: SPI+, Evaluation Type: Evaluation A (Pre-1980)); “active; positive” (Species/Cell Type: Neurospora crassa, Assay Type: Forward gene mutation, Assay Code: NEF+, Evaluation Type: Evaluation A (Pre-1980)); “active; positive” (Species/Cell Type: Nonhuman, Assay Type: Chromosome aberrations in vitro, Assay Code: CY&+, Evaluation Type: Evaluation A (Pre-1980)); “active; positive” (Species/Cell Type: Nonhuman, Assay Type: Sister-chromatid exchange (SCE) in vitro, Assay Code: SC2+, Evaluation Type: Evaluation A (Pre-1980)); “active; positive” (Species/Cell Type: Nonhuman, Assay Type: Sister-chromatid exchange (SCE) in vivo, Assay Code: SC3+, Evaluation Type: Evaluation B (Post-1980)); “no conclusion” (Species/Cell Type: Saccharomyces cerevisiae, Assay Type: Forward gene mutation, Assay Code: YEFT, Evaluation Type: Evaluation A (Pre-1980)). For the same compound, the call under setting [6] is “active; positive”.

In the case of `Cc1ccc2c(ccc3c4c(ccc32)C(=O)CC4)c1`, the mutagenic call under setting [2] is “no conclusion”.

In the case of `C=C(Cl)Cl`, the mutagenic call was “inactive; negative” (Species/Cell Type: Mammalian polychromatic erythrocytes, Assay Type: Micronucleus test, chromosome aberrations, Assay Code: MNT-, Evaluation Type: Evaluation B (Post-1980)); “inactive; negative” under setting [7]; “active; positive” (Species/Cell Type: Salmonella typhimurium (one or more of the five standard strains: TA98, TA100, TA1535, TA1537, and TA1538), Assay Type: Histidine reverse gene mutation, Ames assay, Assay Code: SAL+*, Activation: With metabolic activation, Evaluation Type: Evaluation A (Pre-1980)); “active; positive” (Species/Cell Type: Tradescantia species, Assay Type: Gene mutation, Assay Code: TRM+D, Dose Response: With dose response, Evaluation Type: Evaluation A (Pre-1980)). Moreover, the call under setting [6] was “active; positive”.

Turning to `COC1=C(OC)C(=O)C(C/C=C(\C)CC/C=C(\C)CC/C=C(\C)CC/C=C(\C)CC/C=C(\C)CC/C=C(\C)CCC=C(C)C)=C(C)C1=O`, where the note is “Species/Cell Type: Human, Sex: Male, Assay Type: Sperm morphology, Assay Code: SPHT, Evaluation Type: Evaluation A (Pre-1980)”, the mutagenic call was “no conclusion”.

Regarding `Cc1c(N(C)CS(=O)(=O)O)c(=O)n(-c2ccccc2)n1C`, where the note is “Species/Cell Type: Human, Assay Type: Sister-chromatid exchange (SCE) in vitro, Assay Code: SC1T, Evaluation Type: Evaluation B (Post-1980)”, the mutagenic call is recorded as “no conclusion”.

With `CC1C[C@@H]2CCC[C@H]2[C@@H]2CCC3CCCC[C@@H]3[C@@H]12` (some centres not stated), the mutagenic call (Species/Cell Type: Syrian hamster embryo (SHE) cells, Assay Type: Cell transformation, clonal assay, Assay Code: CTC+, Evaluation Type: Evaluation A (Pre-1980)) is “active; positive”.

Regarding `CCOC(=O)N(CCOC(C)=O)N=O`, the mutagenic call under setting [8] was “active; positive”.

`C[C@]12CCC3=C4CCC(=O)C=C4CC[C@H]3[C@@H]1CC[C@@]2(O)CC#N`: the mutagenic call (Species/Cell Type: Rabbit, Sex: Male, Assay Type: Sperm morphology, Assay Code: SPR+, Evaluation Type: Evaluation A (Pre-1980)) was “active; positive”.

As for `NC1(C(=O)O)CCCC1`, the mutagenic call under setting [4] is “no conclusion”.

Turning to `c1ccc2c(C3CO3)c3ccccc3cc2c1` (configuration not stated), under setting [8], the mutagenic call is “active; positive”.

Take `CCCN(C)N=O`: where the note is “Species/Cell Type: Chinese hamster lung (V79) cells, Assay Type: Forward gene mutation at the HPRT or ouabain locus, Assay Code: V79+, Evaluation Type: Evaluation A (Pre-1980)”, the mutagenic call was “active; positive”.

For the compound `CCN(O)CC`, the mutagenic call (Species/Cell Type: Drosophila melanogaster, Assay Type: Sex-linked recessive lethal gene mutation, Assay Code: SRL+, Evaluation Type: Evaluation A (Pre-1980)) was “active; positive”; the mutagenic call under setting [9] is “active; positive”; the mutagenic call under setting [5] is “no conclusion”; the mutagenic call (Species/Cell Type: Rodents, Sex: Male, Assay Type: Dominant lethal test, Assay Code: DLTT, Evaluation Type: Evaluation A (Pre-1980)) is recorded as “no conclusion”.

On to `O=S(O)S(=O)(=O)O`, for which the mutagenic call is, setting by setting: under setting [10], “no conclusion”; (Species/Cell Type: Nonhuman, Assay Type: Sister-chromatid exchange (SCE) in vitro, Assay Code: SC2T, Evaluation Type: Evaluation A (Pre-1980)) “no conclusion”; (Species/Cell Type: Nonhuman, Assay Type: Sister-chromatid exchange (SCE) in vivo, Assay Code: SC3-, Evaluation Type: Evaluation B (Post-1980)) “inactive; negative”.

Take `CC(C)(C)Cl`: the mutagenic call under setting [4] is recorded as “no conclusion”.

Turning to `COc1ccc(-c2csc(N)n2)cc1`, the mutagenic call (Species/Cell Type: Salmonella typhimurium, Serratia marcesens, Assay Type: Forward and reverse gene mutation, host-mediated assay, Assay Code: HM2T, Evaluation Type: Evaluation A (Pre-1980)) is reported as “no conclusion”.

On to `OCCN1CCN(C2Cc3cc(Cl)ccc3Sc3ccccc32)CC1` (configuration not stated), for which the mutagenic call under setting [7] is “inactive; negative”.

`COc1ccc2nc3cc(Cl)ccc3c(NCCCSCCCl)c2n1`: the mutagenic call under setting [3] is “active; positive”.

Consider `CCNP(=S)(OC)O/C(C)=C/C(=O)OC(C)C` (configuration not stated) (tested in a mixture with another compound), for which, under setting [10], the mutagenic call is on record as “no conclusion”.

With `CC(=O)N(O)c1ccc2c(ccc3ccccc32)c1`, the mutagenic call under setting [9] was “active; positive”. Besides, under setting [6], the call is “active; positive”.
